From patent US10538567B2, “Compounds as peptidic trigonal GLP1/glucagon/GIP receptor agonists” (priority 2016, dated 2020)
Numbered stars: 1 amine (or outer) side, 2 acyl side, 3 side chain; on linkers, the order of the positions; unused ones are H or OH. Square brackets hold non-standard residues; d marks the D form. Side chains are listed from the residue outwards. Peptide text beside a SMILES is read from it. * marks the point of attachment. γGlu = O=C(O)[C@H](CCC(=O)[*:2])N[*:1]; Palmitoyl = CCCCCCCCCCCCCCCC(=O)*; Aib = CC(C)(N)C(=O)O

Experiments:
[1] = Solubility assessment in solubility buffer system A; type: physicochemical; conditions: acetate buffer pH 4.5 with m-cresol; acetate buffer pH 4.5, 2.7 mg/ml m-cresol, target 10 mg/ml
Description: Prior to the solubility measurement of a peptide batch, its purity was determined through UPLC/MS.
Therefore solutions from solid samples were prepared in a buffer system with a concentration of 10 mg/mL compound based on the previously determined % purity:
Solubility buffer system A) Acetate Buffer pH 4.5, 100 mM sodium acetate trihydrate, 2.7 mg/ml m-Cresol
UPLC-UV was performed after 1 hour of gentle agitation from the supernatant, which was obtained after 15 min of centrifugation at 2500 RCF (relative centrifugal acceleration).
The solubility was determined by the comparison of the UV peak area of 2 μL-injection of a buffered sample diluted 1:10 with a standard curve of a reference peptide with known concentration. The different UV extinction coefficients of sample and reference peptide were calculated based on the different amino acid sequences and considered in the concentration calculation.
Peptide samples were prepared in solubility buffer system A and solubility was assessed as described in Methods.

[2] = Dynamic light scattering, hydrodynamic radius as surrogate for DLS interaction parameter kD; type: physicochemical; conditions: for Delta Rh [nm] = Rh5 − Rh1: DLS buffer system A pH 4.5; for Rh1 [nm] c = 1 mg/ml / Rh5 [nm] c = 5 mg/ml: hydrodynamic radius, DLS buffer system A pH 4.5, method C, 25° C.
Source text: A monochromatic and coherent light beam (laser) is used to illuminate the liquid sample. Dynamic Light Scattering (DLS) measures light scattered from particles (1 nm≤radius≤1 μm) that undergo Brownian motion. This motion is induced by collisions between the particles and solvent molecules that themselves are moving due to their thermal energy. The diffusional motion of the particles results in temporal fluctuations of the scattered light [Pecora, R. Dynamic Light Scattering: Applications of Photon Correlation Spectroscopy, Plenum Press, 1985].
The scattered light intensity fluctuations are recorded and transformed into an autocorrelation function. By fitting the autocorrelation curve to an exponential function, the diffusion coefficient D of the particles in solution can be derived. The diffusion coefficient is then used to calculate the hydrodynamic radius Rh (or apparent Stokes radius) through the Stokes-Einstein equation assuming spherical particles. This calculation is defined in ISO 13321 and ISO 22412 [International Standard ISO13321 Methods for Determination of Particle Size Distribution Part 8: Photon Correlation Spectroscopy, International Organisation for Standardisation (ISO) 1996; International Standard ISO22412 Particle Size Analysis—Dynamic Light Scattering, International Organisation for Standardisation (ISO) 2008].
For every peptide solution, the hydrodynamic radius Rh and the diffusion constant D (related via the Stokes-Einstein equation) were determined as an average over triplicates. Both parameters were determined at different peptide concentrations (e.g., Rh1 and D1: 1 mg/ml and Rh5 and D5: 5 mg/ml) in the same buffer system. The difference of these parameters between low and high peptide concentration is a surrogate for the DLS interaction parameter kD. Rh5<Rh1 or D5>D1 correspond to kD>0 and therefore to repulsive inter-particle interactions that result in improved physical (or colloidal) stability.
DLS buffer system A) 25 mM acetate buffer pH 4.5, 3 mg/mL L-Methionine, 2.7 mg/mL m-cresol, 18 mg/mL Glycerol 85%
DLS Method C: DLS measurements were performed on a DynaPro Plate Reader II (Wyatt Technology, Santa Barbara, Calif., US) and using one of the following black, low volume, and non-treated plates: polystyrene 384 assay plate with clear bottom (Corning, N.Y., US), polystyrene 96 assay plate with clear bottom (Corning, N.Y., US), cyclo olefin polymer (COP) 384 assay plate with clear bottom (Aurora, Mont., US), or polystyrene 384 assay plate with clear bottom (Greiner Bio-One, Germany). The data were processed with the Dynamics software provided by Wyatt Technology. Parameters of the particle size distribution were determined with non-negatively constrained least squares (NNLS) methods using DynaLS algorithms. Measurements were taken at 25° C. with an 830 nm laser light source at an angle of 158°.
The hydrodynamic radius Rh of peptide samples was determined at different peptide concentrations (1 mg/ml and 5 mg/ml) in DLS buffer system A using DLS method C as described in Methods as surrogate for the DLS interaction parameter kD.

human glucagon receptor = biological target: T1, human glucagon receptor (Homo sapiens, UniProt P47871); assay: cAMP response (HTRF) of HEK-293 cells stably expressing human glucagon receptor; type: cell-based; conditions: Table 8; read-out: EC50 hGlucagon R
T1 construct: expressed in transfected cells; host or cells: HEK-293
T1 sequence (P47871 26-477): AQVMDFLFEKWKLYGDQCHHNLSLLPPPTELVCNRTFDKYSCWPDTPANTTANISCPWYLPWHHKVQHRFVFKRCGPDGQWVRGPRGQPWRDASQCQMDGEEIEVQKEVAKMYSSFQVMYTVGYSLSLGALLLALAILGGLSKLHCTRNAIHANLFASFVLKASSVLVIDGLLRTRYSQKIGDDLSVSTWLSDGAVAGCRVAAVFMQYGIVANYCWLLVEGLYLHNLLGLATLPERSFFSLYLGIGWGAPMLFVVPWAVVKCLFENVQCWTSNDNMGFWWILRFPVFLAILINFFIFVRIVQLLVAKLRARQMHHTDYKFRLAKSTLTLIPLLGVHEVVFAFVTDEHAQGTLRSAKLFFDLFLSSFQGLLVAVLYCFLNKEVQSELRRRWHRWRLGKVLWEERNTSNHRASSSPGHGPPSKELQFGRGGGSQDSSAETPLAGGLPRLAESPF
Description: cAMP content of cells was determined using a kit from Cisbio Corp. (cat. no. 62AM4PEJ) based on HTRF (Homogenous Time Resolved Fluorescence). For preparation, cells were split into T175 culture flasks and grown overnight to near confluency in medium (DMEM/10% FBS). Medium was then removed and cells washed with PBS lacking calcium and magnesium, followed by proteinase treatment with accutase (Sigma-Aldrich cat. no. A6964). Detached cells were washed and resuspended in assay buffer (1×HBSS; 20 mM HEPES, 0.1% BSA, 2 mM IBMX) and cellular density determined. They were then diluted to 400000 cells/ml and 25 μl-aliquots dispensed into the wells of 96-well plates. For measurement, 25 μl of test compound in assay buffer was added to the wells, followed by incubation for 30 minutes at room temperature.
Potencies of peptidic compounds at the GLP-1, glucagon and GIP receptors were determined by exposing cells expressing human glucagon receptor (hGlucagon R), human GIP receptor (hGIP-R) or human GLP-1 receptor (hGLP-1 R) to the listed compounds at increasing concentrations and measuring the formed cAMP as described in Methods.

solubility at 1 h [1] [mg/mL] | Delta Rh [nm] = Rh5 − Rh1 [2] [nm] | Rh1 [nm] c = 1 mg/ml [2] [nm] | Rh5 [nm] c = 5 mg/ml [2] [nm] | EC50 (human glucagon receptor) [pM] | SMILES
> 9.7 | −0.9 | 2.5 | 1.7 |  | CCCCCCCCCCCCCCCC(=O)N[C@@H](CCC(=O)N[C@@H](CCC(=O)NCCCC[C@H](NC(=O)[C@H](CC(C)C)NC(=O)[C@H](CCCCN)NC(=O)[C@H](CO)NC(=O)[C@H](CC(C)C)NC(=O)[C@H](CC(=O)O)NC(=O)[C@H](CO)NC(=O)[C@@H](NC(=O)[C@H](Cc1ccccc1)NC(=O)[C@@H](NC(=O)CNC(=O)[C@H](Cc1c[nH]cn1)NC(=O)C(C)(C)NC(=O)[C@@H](N)Cc1c[nH]cn1)[C@@H](C)O)[C@@H](C)O)C(=O)N[C@@H](CCC(=O)O)C(=O)N[C@@H](CCC(=O)O)C(=O)N[C@@H](CCC(N)=O)C(=O)N[C@@H](CCCNC(=N)N)C(=O)N[C@@H](CCC(N)=O)C(=O)N[C@@H](CCCCN)C(=O)N[C@@H](CCC(=O)O)C(=O)N[C@@H](Cc1ccccc1)C(=O)N[C@H](C(=O)N[C@@H](CCC(=O)O)C(=O)N[C@@H](Cc1c[nH]c2ccccc12)C(=O)N[C@@H](CC(C)C)C(=O)N[C@@H](CCCCN)C(=O)N[C@@H](C)C(=O)NCC(=O)NCC(=O)N[C@@H](Cc1c[nH]cn1)C(=O)N1CCC[C@H]1C(=O)N[C@@H](CO)C(=O)NC(C)(C)C(=O)N[C@@H](CCCCN)C(=O)N1CCC[C@H]1C(=O)N1CCC[C@H]1C(=O)N1CCC[C@H]1C(=O)N[C@@H](CCCCN)C(N)=O)[C@@H](C)CC)C(=O)O)C(=O)O [SEQ ID NO: 6, H-Aib-H-G-T-F-T-S-D-L-S-K-L-K[gGlu-gGlu-Palm]-E-E-Q-R-Q-K-E-F-I-E-W-L-K-A-G-G-H-P-S-Aib-K-P-P-P-K-NH2]
> 9.3 | −0.2 | 2.8 | 2.6 |  | CCCCCCCCCCCCCCCC(=O)N[C@@H](CCC(=O)N[C@@H](CCC(=O)NCCCC[C@H](NC(=O)[C@H](CC(C)C)NC(=O)[C@H](CCCCN)NC(=O)[C@H](CO)NC(=O)[C@H](CC(C)C)NC(=O)[C@H](CC(=O)O)NC(=O)[C@H](CO)NC(=O)[C@@H](NC(=O)[C@H](Cc1ccccc1)NC(=O)[C@@H](NC(=O)CNC(=O)[C@H](Cc1c[nH]cn1)NC(=O)C(C)(C)NC(=O)[C@@H](N)Cc1c[nH]cn1)[C@@H](C)O)[C@@H](C)O)C(=O)N[C@@H](CCC(=O)O)C(=O)N[C@@H](CCC(=O)O)C(=O)N[C@@H](CCC(N)=O)C(=O)N[C@@H](CCCNC(=N)N)C(=O)N[C@@H](CCC(N)=O)C(=O)N[C@@H](CCCCN)C(=O)N[C@@H](CCC(=O)O)C(=O)N[C@@H](Cc1ccccc1)C(=O)N[C@H](C(=O)N[C@@H](CCC(=O)O)C(=O)N[C@@H](Cc1c[nH]c2ccccc12)C(=O)N[C@@H](CC(C)C)C(=O)N[C@@H](CCCCN)C(=O)N[C@@H](C)C(=O)N[C@H](C)C(=O)NCC(=O)N1CCC[C@H]1C(=O)N1CCC[C@H]1C(=O)N[C@@H](CO)C(=O)NC(C)(C)C(=O)N[C@@H](CCCCN)C(=O)N1CCC[C@H]1C(=O)N1CCC[C@H]1C(=O)N1CCC[C@H]1C(=O)N[C@@H](CCCCN)C(N)=O)[C@@H](C)CC)C(=O)O)C(=O)O [SEQ ID NO: 9, H-Aib-H-G-T-F-T-S-D-L-S-K-L-K[gGlu-gGlu-Palm]-E-E-Q-R-Q-K-E-F-I-E-W-L-K-A-dAla-G-P-P-S-Aib-K-P-P-P-K-NH2] (H-H[Aib]HGTFTSDLSKLK([γGlu-γGlu-Palmitoyl])EEQRQKEFIEWLKA[dA]GPPS[Aib]KPPPK-NH2)
> 9.8 |  |  |  |  | CCCCCCCCCCCCCCCC(=O)N[C@@H](CCC(=O)N[C@@H](CCC(=O)NCCCC[C@H](NC(=O)[C@H](CC(C)C)NC(=O)[C@H](CCCCN)NC(=O)[C@H](CO)NC(=O)[C@H](CC(C)C)NC(=O)[C@H](CC(=O)O)NC(=O)[C@H](CO)NC(=O)[C@@H](NC(=O)[C@H](Cc1ccccc1)NC(=O)[C@@H](NC(=O)CNC(=O)[C@H](Cc1c[nH]cn1)NC(=O)C(C)(C)NC(=O)[C@@H](N)Cc1c[nH]cn1)[C@@H](C)O)[C@@H](C)O)C(=O)N[C@@H](CCC(=O)O)C(=O)N[C@@H](CCC(=O)O)C(=O)N[C@@H](CCC(N)=O)C(=O)N[C@@H](CCCNC(=N)N)C(=O)N[C@@H](CCC(N)=O)C(=O)NC(C)(C)C(=O)N[C@@H](CCC(=O)O)C(=O)N[C@@H](Cc1ccccc1)C(=O)N[C@H](C(=O)N[C@@H](CCC(=O)O)C(=O)N[C@@H](Cc1c[nH]c2ccccc12)C(=O)N[C@@H](CC(C)C)C(=O)N[C@@H](CCCCN)C(=O)N[C@@H](C)C(=O)NCC(=O)NCC(=O)N1CCC[C@H]1C(=O)N1CCC[C@H]1C(=O)N[C@@H](CO)C(=O)NC(C)(C)C(=O)N[C@@H](CCCCN)C(=O)N1CCC[C@H]1C(=O)N1CCC[C@H]1C(=O)N1CCC[C@H]1C(=O)N[C@@H](CCCCN)C(N)=O)[C@@H](C)CC)C(=O)O)C(=O)O [SEQ ID NO: 10, H-Aib-H-G-T-F-T-S-D-L-S-K-L-K[gGlu-gGlu-Palm]-E-E-Q-R-Q-Aib-E-F-I-E-W-L-K-A-G-G-P-P-S-Aib-K-P-P-P-K-NH2]
 | −0.3 | 2.9 | 2.6 | 2 | CCCCCCCCCCCCCCCC(=O)N[C@@H](CCC(=O)N[C@@H](CCC(=O)NCCCC[C@H](NC(=O)[C@H](CC(C)C)NC(=O)[C@H](CCCCN)NC(=O)[C@H](CO)NC(=O)[C@H](CC(C)C)NC(=O)[C@H](CC(=O)O)NC(=O)[C@H](CO)NC(=O)[C@@H](NC(=O)[C@H](Cc1ccccc1)NC(=O)[C@@H](NC(=O)CNC(=O)[C@H](Cc1c[nH]cn1)NC(=O)C(C)(C)NC(=O)[C@@H](N)Cc1c[nH]cn1)[C@@H](C)O)[C@@H](C)O)C(=O)N[C@@H](CCC(=O)O)C(=O)N[C@@H](CCC(=O)O)C(=O)N[C@@H](CCC(N)=O)C(=O)N[C@@H](CCCNC(=N)N)C(=O)N[C@@H](CCC(N)=O)C(=O)NC(C)(C)C(=O)N[C@@H](CCC(=O)O)C(=O)N[C@@H](Cc1ccccc1)C(=O)N[C@H](C(=O)N[C@@H](CCC(=O)O)C(=O)N[C@@H](Cc1c[nH]c2ccccc12)C(=O)N[C@@H](CC(C)C)C(=O)N[C@@H](CCCCN)C(=O)N[C@@H](C)C(=O)NCC(=O)NCC(=O)N[C@@H](Cc1c[nH]cn1)C(=O)N1CCC[C@H]1C(=O)N[C@@H](CO)C(=O)NC(C)(C)C(=O)N[C@@H](CCCCN)C(=O)N1CCC[C@H]1C(=O)N1CCC[C@H]1C(=O)N1CCC[C@H]1C(=O)N[C@@H](CCCCN)C(N)=O)[C@@H](C)CC)C(=O)O)C(=O)O [SEQ ID NO: 12, H-Aib-H-G-T-F-T-S-D-L-S-K-L-K[gGlu-gGlu-Palm]-E-E-Q-R-Q-Aib-E-F-I-E-W-L-K-A-G-G-H-P-S-Aib-K-P-P-P-K-NH2]
